# Measured values from patent publication US9233995B2, “Quinazoline derivatives and quinazoline complex protein kinase inhibitor for inhibiting multiplication of tumor cells and preparation method thereof” (INSTITUTE OF CHEMISTRY, CHINESE ACADEMY OF SCIENCES, priority 2010, dated 2016).
# Like-named read-outs stand apart in the source and are kept apart here.
# Legend:
# [1] = system: Human breast cancer cell line (drug-resistant) MCF-7/A; test: Cytotoxicity experiment, SRB method, tumor cell proliferation; type: cell-based; conditions: 48 h, read-out: IC50 (umol/L) Breast cancer cell (drug-resistant) MCF-7/A
# Method: (§1) Human breast cancer cell line (drug-resistant) MCF-7/A, human breast cancer cell line (sensitive) MCF-7/S, prostate cancer cell PC-3, keratinocyte Colo-16, human non-small cell lung cancer cell line A549 and etc. are cultured in RPMI1640 medium (Invitrogen, USA) containing 10 wt % fetal bovine serum (FBS, Hyclone, USA), and epidermal growth factor (EGF) at a concentration of 100 ng/ml is added to stimulate growth. After 2-3 days, cells in logarithmic growth phase are collected, and inoculated at 96 well plates (6500 cells/well/100 ul, RPMI1640 containing 100 ng/mL EGF) for 24 h, and then compound at gradient concentrations (200, 100, 50, 25, 12.5, 6.25, 1 μM/L) are added. The same volume of RPMI1640 containing 1 wt % of dimethyl sulfoxide (DMSO) is used as control group of the experiment; the blank group is only culture medium without cell. Three parallel wells are set up for each concentration group. After incubation is continued for 48 h, the cell survival rate is measured by SRB method. Results are shown in Table 2 and Table 3, respectively.
# (§2) Wherein, for experiment on compound cytotoxicity assay by sulforhodamine B (SRB) method: Cells in the logarithmic growth phase are collected and inoculated at 96-well plates (6500 cells/well/100 ul, RPMI1640 containing 100 ng/ml of EGF). After incubation for 24 h, compounds at gradient concentrations (200, 100, 50, 25, 12.5, 6.25, 1 (μM/L)) are added. The same volume of RPMI1640 containing 100 ng/ml of EGF is used as control group of the experiment; the blank group is only culture medium without cell. Three parallel wells are set up for each concentration group. After incubation is continued for 48 h, the cell survival rate is measured by SRB method. 50 μl 10% trichloroacetic acid (TCA) pre-cooled (4° C.) is added to each well, it is fixed for 1 hour at 4° C., washed with water for five times, and completely dried, and then 100 μl of SRB solution (Sigma, USA) at concentration of 0.4% by weight is added, and staining is performed at 37° C. in the dark for 30 min. Wash with acetic acid at a concentration of 1% by weight for 4-5 times, dry in the air, add 200 μl of Tris solution (10 mM, pH 10.5), after sufficiently dissolved, the absorbance (absorption wavelength is 570 nm) is measured in microplate reader.
# (§3) The growth inhibition rate (IR) is calculated according to the following formula: IR (%)=[1−(experiment group A value−blank group A value)/(control group A value−blank group A value)]×100%, and the IC50 value is calculated using Origin 6.0 software.
# [2] = system: human breast cancer cell line (sensitive) MCF-7/S; test: as above; type: cell-based; conditions: 48 h, read-out: IC50 (umol/L) Breast cancer cell (sensitive) MCF-7/S
# Method: as §1, §2, §3
# [3] = system: human non-small cell lung cancer cell line A549; test: as above; type: cell-based; conditions: A549, 48 h, read-out: IC50 (μmol/L) Non-small cell lung cancer cell A549
# Method: as §1, §2, §3
# [4] = system: keratinocyte Colo-16; test: as above; type: cell-based; conditions: read-out: IC50 (μmol/L) Keratinocyte Colo-16
# Method: as §1, §2, §3
# [5] = system: prostate cancer cell PC-3; test: as above; type: cell-based; conditions: read-out: IC50 (μmol/L) Prostate cancer cell PC-3
# Method: as §1, §2, §3
# [6] = system: human breast cancer cell line (sensitive) MCF-7/S + EGF; test: Cytotoxicity experiment under the condition of additional EGF, SRB method; type: cell-based
# Method: Human breast cancer cell line (sensitive) MCF-7/S and human non-small cell lung cancer cell line A549 are cultured in HAM′S/F-12 medium (HyClone, USA) containing 10 wt % fetal bovine serum (FBS, Hyclone, USA), and 100 ng/ml epidermal growth factor (EGF, Sigma, USA) is added to this medium. Cells described above were purchased from Cell Resource Center, Shanghai Institute for Biological Science, CAS, they are placed in a CO2 incubator and used for the experiment 3-5 days later.
# as §2, §3
# [7] = Stability (physicochemical properties, Table 1); conditions: for Stability (photostability): light
# [8] = Solubility (physicochemical properties, Table 1); conditions: room temperature, atmospheric pressure
# [9] = target: T1, EGFR (Epidermal Growth Factor Receptor) (Homo sapiens, UniProt P00533); test: Enzyme-linked immunosorbent assay (ELISA), kinase inhibitory activity (phosphorylation of PTP1B(Tyr66) biotinylated peptide substrate); type: biochemical; conditions: average of two independent parallel experiments
# T1 construct: purchased CST
# T1 sequence (P00533 25-1210): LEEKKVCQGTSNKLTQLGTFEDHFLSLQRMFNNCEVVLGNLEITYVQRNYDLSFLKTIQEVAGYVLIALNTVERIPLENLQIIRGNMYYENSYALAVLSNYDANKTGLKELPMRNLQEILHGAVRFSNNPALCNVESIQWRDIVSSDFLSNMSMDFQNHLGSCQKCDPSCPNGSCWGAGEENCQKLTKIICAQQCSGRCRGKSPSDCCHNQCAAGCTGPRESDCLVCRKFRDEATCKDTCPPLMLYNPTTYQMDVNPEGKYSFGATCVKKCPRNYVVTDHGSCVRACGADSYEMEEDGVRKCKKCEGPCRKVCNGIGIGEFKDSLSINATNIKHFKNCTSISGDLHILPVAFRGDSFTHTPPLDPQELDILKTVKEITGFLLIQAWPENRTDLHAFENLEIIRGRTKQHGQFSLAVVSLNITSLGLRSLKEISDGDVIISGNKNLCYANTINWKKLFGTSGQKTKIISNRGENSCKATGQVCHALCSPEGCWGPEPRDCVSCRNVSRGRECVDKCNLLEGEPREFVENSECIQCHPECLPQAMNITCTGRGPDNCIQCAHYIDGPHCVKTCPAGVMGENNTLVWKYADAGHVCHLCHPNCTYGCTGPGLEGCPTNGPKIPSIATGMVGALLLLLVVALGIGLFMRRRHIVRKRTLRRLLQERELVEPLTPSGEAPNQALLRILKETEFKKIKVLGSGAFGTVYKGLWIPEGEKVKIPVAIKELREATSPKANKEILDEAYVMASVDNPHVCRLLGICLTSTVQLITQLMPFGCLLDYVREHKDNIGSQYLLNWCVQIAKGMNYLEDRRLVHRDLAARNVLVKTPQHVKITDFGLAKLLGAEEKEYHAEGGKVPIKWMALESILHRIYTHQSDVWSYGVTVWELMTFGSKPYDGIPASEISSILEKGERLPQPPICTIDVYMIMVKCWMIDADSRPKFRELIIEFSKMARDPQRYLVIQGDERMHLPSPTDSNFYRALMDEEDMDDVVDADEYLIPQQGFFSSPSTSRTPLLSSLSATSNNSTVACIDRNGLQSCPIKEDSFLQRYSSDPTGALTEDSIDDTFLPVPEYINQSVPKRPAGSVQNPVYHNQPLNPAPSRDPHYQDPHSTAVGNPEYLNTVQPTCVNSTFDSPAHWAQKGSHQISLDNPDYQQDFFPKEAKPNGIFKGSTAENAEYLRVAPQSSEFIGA
# From the text: Protein kinase assay kit: PTP1B(Tyr66) Biotinylated Peptide from CST company is used as a substrate of kinase EGFR (Epidermal Growth Factor Receptor).
# [10] = Homo sapiens, MCF7S, MCF-7/S with additional EGF 100 ng/ml, 48 h, SRB, read-out: IC50 (umol/L) Breast cancer cell (sensitive) MCF-7/S + EGF
# [11] = Keratinocyte, Colo-16, 48 h, SRB
# [12] = MCF-7/S with additional EGF 100 ng/ml, 48 h, SRB, read-out: IC50 (umol/L) Breast cancer cell (sensitive) MCF-7/S + EGF
Compound,Stability (in air) [7],Stability (photostability) [7],Solubility in DMSO [8],Solubility in methanol and ethanol [8],Solubility in water [8],IC50 [9],"IC50 ([5]; PC-3, 48 h, SRB)",IC50 [1],IC50 [2],"IC50 ([4]; Colo-16, 48 h, SRB)","IC50 [6, 12]",further results
COc1cc2ncnc(Nc3ccc(F)c(Cl)c3)c2cc1OCCn1ccnc1 [JLY1002],"Stable in air,",photostable,Highly soluble in DMSO,"soluble in water, soluble in methanol",slightly,–,–,–,–,–,–,"IC50 ([1]; Homo sapiens, MCF7a): > 100 µmol/L; IC50 ([2]; Homo sapiens, MCF7S): > 100 µmol/L; IC50 ([3]; Homo sapiens): 48.2 ± 0.51 µmol/L; IC50 ([4]; Keratinocyte, 48 h): > 100 µmol/L; IC50 ([5]; 48 h): > 100 µmol/L; IC50 [6, 10]: > 100 µmol/L"
COc1cc2ncnc(Nc3ccc(F)c(Cl)c3)c2cc1OCC[N]1CC[NH][Ru]1([Cl])([Cl])([Cl])[SH](C)(C)=O [JLY2007],"Stable in air,",photostable,Highly soluble in DMSO,"soluble in water, soluble in methanol",slightly,0.0075 µM,–,–,–,–,–,–
"COc1cc2ncnc(Nc3ccc(F)c(Cl)c3)c2cc1OC [LQ1001, reference compound]","Stable in air,",photostable,Highly soluble in DMSO,"soluble in water, soluble in methanol",slightly,–,> 100 µmol/L,–,–,–,–,"IC50 ([1]; Homo sapiens, MCF7a): > 100 µmol/L; IC50 ([2]; Homo sapiens, MCF7S): > 100 µmol/L; IC50 ([3]; Homo sapiens): > 100 µmol/L; IC50 [4, 11]: 88.2 ± 3.98 µmol/L; IC50 [6, 10]: 53.3 ± 3.12 µmol/L"
"Cl.[Cl-].[Cl-].[Cl-].[Ru+3].c1c[nH]cn1.c1c[nH]cn1 [NAMI-A, reference compound]",–,–,–,–,–,–,> 100 µmol/L,> 100 µmol/L,> 100 µmol/L,> 100 µmol/L,> 100 µmol/L,–
"Cc1ccc(C(C)C)cc1.F[P-](F)(F)(F)(F)F.[Cl][Ru-]1[NH2+]CC[NH2+]1 [Pcy-Ru, reference compound]",–,–,–,–,–,–,> 100 µmol/L,> 100 µmol/L,13 ± 3.37 µmol/L,14.3 ± 1.5 µmol/L,21.8 ± 1.73 µmol/L,IC50 [3]: 17.3 ± 0.76 µmol/L
"CC(=O)O[C@H]1C(=O)[C@@]2(C)[C@H]([C@H](OC(=O)c3ccccc3)[C@]3(O)C[C@H](OC(=O)[C@H](O)[C@@H](NC(=O)c4ccccc4)c4ccccc4)C(C)=C1C3(C)C)[C@]1(OC(C)=O)CO[C@@H]1C[C@@H]2O [Taxol, reference compound]",–,–,–,–,–,–,0.74 ± 0.18 µmol/L,–,–,–,–,"IC50 ([1]; Homo sapiens, MCF7a): 0.44 ± 0.5 µmol/L; IC50 ([3]; Homo sapiens): 4.07 ± 1.63 µmol/L; IC50 [4, 11]: 1.06 ± 0.31 µmol/L; IC50 [6, 10]: 0.029 µmol/L"
"COc1cc2ncnc(Nc3ccc(F)c(Cl)c3)c2cc1OCCBr [ZW1001-M, 4-(3′-chloro-4′-fluoro-phenylamino)-6-(2-bromo-ethoxy)-7-methoxy quinazoline]","Stable in air,",photostable,Highly soluble in DMSO,"soluble in water, soluble in methanol",slightly,0.018 µM,–,–,–,–,–,–
COc1cc2ncnc(Nc3ccc(F)c(Cl)c3)c2cc1OCC[N]1CC[NH][Ru+]1([Cl])[c]1ccccc1.F[P-](F)(F)(F)(F)F (stereo not drawn) [ZW2002],"Stable in air,",photostable,–,–,–,0.0938 µM,> 100 µmol/L,> 100 µmol/L,> 100 µmol/L,42.1 ± 2.55 µmol/L,> 100 µmol/L,IC50 [3]: > 100 µmol/L
COc1cc2ncnc(Nc3ccc(F)c(Cl)c3)c2cc1OCCC[N]1CC[NH][Ru+]1([Cl])[c]1cc(C(C)C)ccc1C.F[P-](F)(F)(F)(F)F (stereo not drawn) [ZW2004],"Stable in air,",photostable,Highly soluble in DMSO,"soluble in water, soluble in methanol",slightly,0.106 µM,79.9 ± 7.44 µmol/L,> 100 µmol/L,86.8 ± 6.66 µmol/L,58.2 ± 1.49 µmol/L,33.9 ± 1.39 µmol/L,"IC50 ([6]; MCF-7/S+EGF, read-out: IC50 under the test condition of MCF-7/S+EGF inhibiting the proliferation of tumor cells): 33.9 µmol/L; IC50 ([6]; MCF-7/S+EGF, read-out: IC50 under the test conditions of MCF-7/S+EGF inhibiting tumor cell proliferation): 33.9 µmol/L"
COc1cc2ncnc(Nc3ccc(F)c(Cl)c3)c2cc1OCCC[N]1CC[NH][Ru+]1([Cl])[c]1ccccc1.F[P-](F)(F)(F)(F)F (stereo not drawn) [ZW2005],"Stable in air,",photostable,–,–,–,0.174 µM,38.3 ± 3.56 µmol/L,> 100 µmol/L,> 100 µmol/L,39.8 ± 4.85 µmol/L,17.4 ± 1.09 µmol/L,IC50 [3]: 45.1 ± 2.34 µmol/L
COc1cc2ncnc(Nc3ccc(F)c(Cl)c3)c2cc1OCC[NH+]1CC[NH2+][Pt-2]1([Cl])[Cl] (stereo not drawn) [ZY-1],"Stable in air,",photostable,Highly soluble in DMSO,"soluble in water, soluble in methanol",slightly,0.0028 µM,–,–,–,–,–,–
COc1cc2ncnc(Nc3ccc(F)c(Cl)c3)c2cc1OCCC[NH+]1CC[NH2+][Pt-2]1([Cl])[Cl] (stereo not drawn) [ZY-2],"Stable in air,",photostable,Highly soluble in DMSO,"soluble in water, soluble in methanol",slightly,0.017 µM,–,–,–,–,–,–
